This assay concerns P388 leukemia ip, CD2F1 mice, survival T/C. The assay is described as follows: NCI In Vivo Anticancer Drug Screen. Data for tumor model P388 Leukemia (intraperitoneal) in CD2F1 (CDF1) mice. Conditions: endpoint: median survival time, higher = longer survival. An outline of the steps:
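Mice carrying the transplanted tumor received test compound or vehicle. Survival was recorded in each group, and the value is the treated-group measurement divided by that of the vehicle-treated control group.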

[1] abbreviates: dose: 25.0 mg/kg/injection, schedule: Q01DX009 (ip), vehicle: water.
The mark [2] stands for this setting: dose: 25.0 mg/kg/injection, schedule: Q04DX003 (ip), vehicle: saline with Tween-80.

For 12 molecules, T/C results are on record in PubChem BioAssay AID330 (DTP/NCI, 2004).

Values joined by “and” are separate entries in the source; they are usually repeats but may differ in a detail not shown here. Equal entries are not always repeated. Toxic doses and inconclusive results are not listed.

Regarding `C=C1CC[C@]2(C)CC[C@]3(C)C4=CC=C5C(=CC(=O)C(O)=C5C)[C@]4(C)CC[C@@]3(C)[C@@H]2C1`, the T/C by setting is: (dose: 0.06 mg/kg/injection, schedule: Q01DX009 (ip), vehicle: saline with Tween-80) 97 % of control; (dose: 0.09 mg/kg/injection, schedule: Q01DX009 (ip), vehicle: none) 93 % of control; (dose: 0.12 mg/kg/injection, schedule: Q01DX009 (ip), vehicle: saline with Tween-80) 103 % of control; (dose: 0.19 mg/kg/injection, schedule: Q01DX009 (ip), vehicle: none) 103 % of control; (dose: 0.25 mg/kg/injection, schedule: Q01DX009 (ip), vehicle: saline with Tween-80) 100 % of control and 103 % of control; (dose: 0.5 mg/kg/injection, schedule: Q01DX009 (ip), vehicle: none) 107 % of control and 98 % of control. Also, the T/C runs as follows: (dose: 0.5 mg/kg/injection, schedule: Q01DX009 (ip), vehicle: saline with Tween-80) 103 % of control and 115 % of control; (dose: 0.75 mg/kg/injection, schedule: Q01DX009 (ip), vehicle: none) 103 % of control and 107 % of control; (dose: 1.0 mg/kg/injection, schedule: Q01DX009 (ip), vehicle: none) 110 % of control; (dose: 1.0 mg/kg/injection, schedule: Q01DX009 (ip), vehicle: saline with Tween-80) 112 % of control and 119 % of control; (dose: 1.5 mg/kg/injection, schedule: Q01DX009 (ip), vehicle: none) 105 % of control and 120 % of control and 98 % of control; (dose: 2.0 mg/kg/injection, schedule: Q01DX009 (ip), vehicle: none) 115 % of control and 120 % of control. Also, the T/C (dose: 3.0 mg/kg/injection, schedule: Q01DX009 (ip), vehicle: none) is 95 % of control.
As for `Nc1cc(C(=O)O)cc(Cl)n1`, the T/C is 108 % of control (dose: 3.12 mg/kg/injection, schedule: Q01DX009 (ip), vehicle: saline); 101 % of control (dose: 6.25 mg/kg/injection, schedule: Q01DX009 (ip), vehicle: saline); 107 % of control (dose: 12.5 mg/kg/injection, schedule: Q01DX009 (ip), vehicle: saline); 111 % of control (dose: 25.0 mg/kg/injection, schedule: Q01DX009 (ip), vehicle: saline).
For `Cc1c2oc3c(C)ccc(C(=O)NC4C(=O)NC(C(C)C)C(=O)N5CCCC5C(=O)N(C)CC(=O)N(C)C(C(C)C)C(=O)OC4C)c3nc-2c(C(=O)NC2C(=O)NC(C(C)C)C(=O)N3CCCC3C(=O)N(C)CC(=O)N(C)C(C(C)C)C(=O)OC2C)c(Cl)c1=O` (configuration not stated), the T/C is 98 % of control (dose: 0.05 mg/kg/injection, schedule: Q01DX009 (ip), vehicle: water); 96 % of control (dose: 0.1 mg/kg/injection, schedule: Q01DX009 (ip), vehicle: water); 114 % of control (dose: 0.2 mg/kg/injection, schedule: Q01DX009 (ip), vehicle: water); 106 % of control (dose: 0.4 mg/kg/injection, schedule: Q01DX009 (ip), vehicle: water); 110 % of control (dose: 0.8 mg/kg/injection, schedule: Q01DX009 (ip), vehicle: water); 150 % of control (dose: 3.13 mg/kg/injection, schedule: Q01DX009 (ip), vehicle: water). The T/C runs as follows: (dose: 6.25 mg/kg/injection, schedule: Q01DX009 (ip), vehicle: water) 172 % of control; (dose: 6.4 mg/kg/injection, schedule: Q01DX009 (ip), vehicle: water) 171 % of control; (dose: 12.5 mg/kg/injection, schedule: Q01DX009 (ip), vehicle: water) 172 % of control and 243 % of control; under setting [1], 101 % of control and 256 % of control.
For the molecule `Nc1cccnc1S(=O)(=O)O`, the T/C is, setting by setting: (dose: 50.0 mg/kg/injection, schedule: Q01DX009 (ip), vehicle: saline) 94 % of control; (dose: 100.0 mg/kg/injection, schedule: Q01DX009 (ip), vehicle: saline) 98 % of control; (dose: 200.0 mg/kg/injection, schedule: Q01DX009 (ip), vehicle: saline) 98 % of control.
As for `Nc1cccc(NCc2ccccn2)n1`, the T/C runs as follows: (dose: 50.0 mg/kg/injection, schedule: Q01DX005 (ip), vehicle: Klucel (hydroxypropylcellulose) (HPC)) 101 % of control; (dose: 100.0 mg/kg/injection, schedule: Q01DX005 (ip), vehicle: Klucel (hydroxypropylcellulose) (HPC)) 104 % of control.
For the molecule `N#CC(Br)(Br)C#N`, the T/C by setting is: (dose: 3.13 mg/kg/injection, schedule: Q01DX009 (ip), vehicle: Klucel (hydroxypropylcellulose) (HPC)) 117 % of control; (dose: 6.25 mg/kg/injection, schedule: Q01DX009 (ip), vehicle: Klucel (hydroxypropylcellulose) (HPC)) 114 % of control.
Take `CC(C)CCCCCCCCCCCCC(=O)NCC(=O)NC1C(C)OC(Nc2ncnc3c2ncn3C)C(O)C1O` (configuration not stated): the T/C is 98 % of control (dose: 1.56 mg/kg/injection, schedule: Q01DX009 (ip), vehicle: distilled water + Tween-80); 95 % of control (dose: 3.13 mg/kg/injection, schedule: Q01DX009 (ip), vehicle: distilled water + Tween-80); 101 % of control (dose: 6.25 mg/kg/injection, schedule: Q01DX009 (ip), vehicle: distilled water + Tween-80); 98 % of control (dose: 12.5 mg/kg/injection, schedule: Q01DX009 (ip), vehicle: distilled water + Tween-80); 90 % of control (dose: 25.0 mg/kg/injection, schedule: Q01DX009 (ip), vehicle: distilled water + Tween-80); 91 % of control (dose: 50.0 mg/kg/injection, schedule: Q01DX009 (ip), vehicle: distilled water + Tween-80).
As to `CCCCCCNP(=O)(N1CC1)N1CC1`, the T/C runs as follows: (dose: 3.13 mg/kg/injection, schedule: Q04DX003 (ip), vehicle: saline) 104 % of control; (dose: 10.0 mg/kg/injection, schedule: Q01DX009 (ip), vehicle: saline) 177 % of control; (dose: 12.5 mg/kg/injection, schedule: Q04DX003 (ip), vehicle: saline with Tween-80) 159 % of control; (dose: 20.0 mg/kg/injection, schedule: Q01DX009 (ip), vehicle: saline) 227 % of control; under setting [2], 218 % of control.
For `CC1(C)N=C(N)N=C(N)N1c1cccc(CCCCc2cccc(S(=O)(=O)F)c2)c1`, the T/C reads like this: (dose: 3.9 mg/kg/injection, schedule: Q04DX003 (ip), vehicle: saline with Tween-80) 122 % of control; under setting [2], 95 % of control; (dose: 50.0 mg/kg/injection, schedule: Q04DX003 (ip), vehicle: saline with Tween-80) 90 % of control.
For `CN(Cc1cnc2nc(N)nc(N)c2n1)c1c(Cl)cc(C(=O)NC(CCC(=O)O)C(=O)O)cc1Cl` (configuration not stated), the T/C by setting is: (dose: 25.0 mg/kg/injection, schedule: Q01DX005 (ip), vehicle: suspension in saline) 158 % of control; (dose: 25.0 mg/kg/injection, schedule: Q01DX005 (iv), vehicle: suspension in saline) 119 % of control; (dose: 50.0 mg/kg/injection, schedule: Q01DX005 (ip), vehicle: suspension in saline) 169 % of control; (dose: 100.0 mg/kg/injection, schedule: Q01DX005 (ip), vehicle: suspension in saline) 178 % of control; (dose: 100.0 mg/kg/injection, schedule: Q01DX005 (iv), vehicle: suspension in saline) 165 % of control; (dose: 100.0 mg/kg/injection, schedule: Q04DX003 (ip), vehicle: saline with Tween-80) 195 % of control. Also, the T/C reads like this: (dose: 200.0 mg/kg/injection, schedule: Q01DX005 (ip), vehicle: suspension in saline) 190 % of control; (dose: 200.0 mg/kg/injection, schedule: Q04DX003 (ip), vehicle: saline with Tween-80) 222 % of control; (dose: 264.0 mg/kg/injection, schedule: Q04DX003 (ip), vehicle: saline with Tween-80) 245 % of control; (dose: 400.0 mg/kg/injection, schedule: Q04DX003 (ip), vehicle: saline with Tween-80) 109 % of control and 240 % of control; (dose: 600.0 mg/kg/injection, schedule: Q04DX003 (ip), vehicle: saline with Tween-80) 259 % of control.
For `CCSC(C(O)C(O)C(O)C(O)CO)n1cnc2c(SC)ncnc21` (configuration not stated), the T/C was 99 % of control under setting [1]; 95 % of control (dose: 50.0 mg/kg/injection, schedule: Q01DX009 (ip), vehicle: water); 94 % of control (dose: 100.0 mg/kg/injection, schedule: Q01DX009 (ip), vehicle: water); 99 % of control (dose: 200.0 mg/kg/injection, schedule: Q01DX009 (ip), vehicle: water); 97 % of control (dose: 400.0 mg/kg/injection, schedule: Q01DX009 (ip), vehicle: water).
On to `O=C(/C=C/c1ccccc1)Oc1ccccc1[N+](=O)[O-]`, for which the T/C is 92 % of control (dose: 100.0 mg/kg/injection, schedule: Q01DX001 (ip), vehicle: Klucel (hydroxypropylcellulose) (HPC)); 93 % of control (dose: 200.0 mg/kg/injection, schedule: Q01DX001 (ip), vehicle: Klucel (hydroxypropylcellulose) (HPC)); 92 % of control (dose: 400.0 mg/kg/injection, schedule: Q01DX001 (ip), vehicle: Klucel (hydroxypropylcellulose) (HPC)).
